Laboratory results reported in the supplement of paper PMC10627819.

Legend:
S. pneumoniae D39V [1] = assay: fitness (endpoint OD595 vs no drug) (fraction); higher = more growth
Outline: (§1)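 Fitness was measured as bacterial growth in 384-well plates inoculated at OD595 0.01 (30 µl, or 55 µl for S. pneumoniae). Media were TSB, LB Lennox or CY, at 37 °C. OD595 was read every 30 min for 14 h and background-subtracted against the first reading. Fitness is OD595 at the transition into stationary phase divided by the robust mean of no-drug control wells, capped at 1.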

S. aureus DSM 20231 [2] = assay: as above
Outline: as §1

S. aureus Newman [3] = assay: as above
Outline: as §1

S. pneumoniae D39V [4] = assay: Bliss interaction score (quartile over a dose matrix) (fitness difference); higher = more antagonism (negative = synergy)
Outline: (§2)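 The Bliss score is observed fitness minus expected fitness, where the expected value is the product of single-drug fitness values inferred from combination data. Fitness is OD595 at entry into stationary phase normalised to the plate's robust no-drug mean and capped at 1. Scores are reported as quartiles spanning technical, biological and donor/recipient replicates.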

S. aureus DSM 20231 [5] = assay: as above
Outline: as §2

B. subtilis 168 = assay: as above
Outline: as §2

S. aureus Newman [6] = assay: as above
Outline: as §2
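Throughout, for Bliss interaction score (quartile over a dose matrix): first quartile when negative (synergy) and third quartile when positive (antagonism).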
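Throughout, for fitness (endpoint OD595 vs no drug): OD595 on entry to stationary phase over no-drug wells; at most 1.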

CCCCCCCCCC(=O)N[C@@H](Cc1c[nH]c2ccccc12)C(=O)N[C@H](CC(N)=O)C(=O)N[C@@H](CC(=O)O)C(=O)N[C@@H]1C(=O)NCC(=O)N[C@@H](CCCN)C(=O)N[C@@H](CC(=O)O)C(=O)N[C@H](C)C(=O)N[C@@H](CC(=O)O)C(=O)NCC(=O)N[C@H](CO)C(=O)N[C@@H]([C@H](C)CC(=O)O)C(=O)N[C@@H](CC(=O)c2ccccc2N)C(=O)O[C@@H]1C [Daptomycin] + CN[C@H](CC(C)C)C(=O)N[C@H]1C(=O)N[C@@H](CC(N)=O)C(=O)N[C@H]2C(=O)N[C@H]3C(=O)N[C@H](C(=O)N[C@H](C(=O)O)c4cc(O)cc(O)c4-c4cc3ccc4O)[C@H](O)c3ccc(c(Cl)c3)Oc3cc2cc(c3O[C@@H]2O[C@H](CO)[C@@H](O)[C@H](O)[C@H]2O[C@H]2C[C@](C)(N)[C@H](O)[C@H](C)O2)Oc2ccc(cc2Cl)[C@H]1O [Vancomycin]
Conditions | fitness
S. aureus DSM 20231 [2], first compound 0.5 µg/mL, partner 0.1875 µg/mL | ≥ 1
S. aureus DSM 20231 [2], first compound 0.5 µg/mL, partner 0.375 µg/mL | ≥ 1
S. aureus DSM 20231 [2], first compound 0.5 µg/mL, partner 0.75 µg/mL | ≥ 1
S. aureus DSM 20231 [2], first compound 1 µg/mL, partner 0.1875 µg/mL | ≥ 1
S. aureus DSM 20231 [2], first compound 1 µg/mL, partner 0.375 µg/mL | ≥ 1
S. aureus DSM 20231 [2], first compound 1 µg/mL, partner 0.75 µg/mL | ≥ 1
S. aureus DSM 20231 [2], first compound 2 µg/mL, partner 0.1875 µg/mL | 0.906
S. aureus DSM 20231 [2], first compound 2 µg/mL, partner 0.375 µg/mL | 0.975
S. aureus DSM 20231 [2], first compound 2 µg/mL, partner 0.75 µg/mL | 0.935
S. aureus Newman [3], first compound 0.125 µg/mL, partner 0.1875 µg/mL | ≥ 1
S. aureus Newman [3], first compound 0.125 µg/mL, partner 0.375 µg/mL | ≥ 1
S. aureus Newman [3], first compound 0.125 µg/mL, partner 0.75 µg/mL | 0.973
S. aureus Newman [3], first compound 0.25 µg/mL, partner 0.1875 µg/mL | ≥ 1
S. aureus Newman [3], first compound 0.25 µg/mL, partner 0.375 µg/mL | 0.998
S. aureus Newman [3], first compound 0.25 µg/mL, partner 0.75 µg/mL | 0.985
S. aureus Newman [3], first compound 0.5 µg/mL, partner 0.1875 µg/mL | 0.988
S. aureus Newman [3], first compound 0.5 µg/mL, partner 0.375 µg/mL | ≥ 1
S. aureus Newman [3], first compound 0.5 µg/mL, partner 0.75 µg/mL | 0.952
S. pneumoniae D39V [1], first compound 1 µg/mL, partner 0.03125 µg/mL | 0.921
S. pneumoniae D39V [1], first compound 1 µg/mL, partner 0.0625 µg/mL | 0.841
S. pneumoniae D39V [1], first compound 1 µg/mL, partner 0.25 µg/mL | 0.116
S. pneumoniae D39V [1], first compound 1 µg/mL, partner 0.5 µg/mL | 0.0905
S. pneumoniae D39V [1], first compound 2 µg/mL, partner 0.03125 µg/mL | 0.915
S. pneumoniae D39V [1], first compound 2 µg/mL, partner 0.0625 µg/mL | 0.885
S. pneumoniae D39V [1], first compound 2 µg/mL, partner 0.125 µg/mL | 0.915
S. pneumoniae D39V [1], first compound 2 µg/mL, partner 0.25 µg/mL | 0.103
S. pneumoniae D39V [1], first compound 2 µg/mL, partner 0.5 µg/mL | 0.094
S. pneumoniae D39V [1], first compound 4 µg/mL, partner 0.03125 µg/mL | 0.938
S. pneumoniae D39V [1], first compound 4 µg/mL, partner 0.0625 µg/mL | 0.898
S. pneumoniae D39V [1], first compound 4 µg/mL, partner 0.125 µg/mL | 0.904
S. pneumoniae D39V [1], first compound 4 µg/mL, partner 0.25 µg/mL | 0.184
S. pneumoniae D39V [1], first compound 4 µg/mL, partner 0.5 µg/mL | 0.0719

fitness, S. aureus DSM 20231 [2], one replicate
Conditions | partner 0.1875 µg/mL | partner 0.375 µg/mL | partner 0.75 µg/mL
first compound 0.125 µg/mL | 0.901 | ≥ 1 | ≥ 1
first compound 0.25 µg/mL | 0.853 | ≥ 1 | ≥ 1

Conditions | Bliss interaction score
B. subtilis 168 | 0.0914
S. aureus DSM 20231 [5] | 0.05
S. aureus Newman [6] | 0.0383
S. pneumoniae D39V [4] | 0.0724

CO/N=C(\C(=O)N[C@@H]1C(=O)N2C(C(=O)[O-])=C(C[N+]3(C)CCCC3)CS[C@H]12)c1csc(N)n1 [Cefepime] + CN(N=O)C(=O)N[C@@H](C=O)[C@@H](O)[C@H](O)[C@H](O)CO [Streptozotocin]
fitness
Conditions | first compound 0.007 µg/mL | first compound 0.014 µg/mL | first compound 0.028 µg/mL | first compound 0.125 µg/mL | first compound 0.25 µg/mL | first compound 0.5 µg/mL
S. aureus DSM 20231 [2], partner 0.15 µg/mL | – | – | – | 0.789 | 0.705 | 0.721
S. aureus DSM 20231 [2], partner 0.3 µg/mL | – | – | – | 0.667 | 0.645 | 0.713
S. aureus DSM 20231 [2], partner 0.6 µg/mL | – | – | – | 0.589 | 0.588 | 0.61
S. aureus Newman [3], partner 0.15 µg/mL | – | – | – | 0.814 | 0.765 | 0.682
S. aureus Newman [3], partner 0.3 µg/mL | – | – | – | 0.717 | 0.641 | 0.66
S. aureus Newman [3], partner 0.6 µg/mL | – | – | – | 0.505 | 0.482 | 0.506
S. pneumoniae D39V [1], partner 1.2 µg/mL | 0.964 | 0.935 | 0.824 | – | – | –
S. pneumoniae D39V [1], partner 2.4 µg/mL | 0.987 | 0.993 | 0.923 | – | – | –
S. pneumoniae D39V [1], partner 4.8 µg/mL | 0.966 | 0.983 | 0.868 | – | – | –

fitness, S. pneumoniae D39V [1], one replicate
Conditions | first compound 0.0078 µg/mL | first compound 0.0155 µg/mL | first compound 0.031 µg/mL
partner 1.2 µg/mL | 0.984 | 0.953 | 0.186
partner 2.4 µg/mL | ≥ 1 | 0.937 | 0.289
partner 4.8 µg/mL | 0.956 | 0.895 | 0.0426

Conditions | Bliss interaction score
B. subtilis 168 | -0.0416
S. aureus DSM 20231 [5] | -0.0779
S. aureus Newman [6] | 0.0304
S. pneumoniae D39V [4] | -0.0319
